Laboratory results taken from ChEMBL document CHEMBL3885881, “DrugMatrix”.

Species on record: Rattus norvegicus
Experiment: DrugMatrix - Regimen: Daily Repeat
Type: toxicity, organism-based, Sprague-Dawley
Parameters: regimen Daily Repeat, gender Male, age 6-8 weeks
Settings: in vivo, po, route oral GAVAGE, vehicle .5 % CMC; for ABSOLUTE BASOPHIL / ABSOLUTE EOSINOPHIL / ABSOLUTE LYMPHOCYTE / ABSOLUTE MONOCYTE / ABSOLUTE SEGMENTED NEUTROPHIL / BASOPHIL / EOSINOPHIL / ERYTHROCYTE COUNT / HEMATOCRIT / HEMOGLOBIN / LEUKOCYTE COUNT / LYMPHOCYTE / MEAN CORPUSCULAR HEMOGLOBIN / MEAN CORPUSCULAR HEMOGLOBIN CONCENTRATION / MEAN CORPUSCULAR VOLUME / MONOCYTE / NEUTROPHIL / NUCLEATED RED BLOOD CELLS / PLATELET COUNT: tissue Blood; for ALANINE AMINOTRANSFERASE / ALBUMIN / ALKALINE PHOSPHATASE / ASPARTATE AMINOTRANSFERASE / BLOOD UREA NITROGEN / CARBON DIOXIDE / CHLORIDE / CHOLESTEROL / CREATINE PHOSPHOKINASE / CREATININE / GLUCOSE / LACTATE DEHYDROGENASE / LIPASE / PHOSPHORUS / POTASSIUM / SODIUM / TOTAL BILIRUBIN / TOTAL PROTEIN / URIC ACID: tissue Plasma
[1] = 0 mg/kg, 72 h, dose level Control, time 3 day
[2] = 0 mg/kg, 120 h, dose level Control, time 5 day
[3] = 10 mg/kg, 72 h, dose level Low, time 3 day

O=C1CN=C(c2ccccc2Cl)c2cc([N+](=O)[O-])ccc2N1 [CLONAZEPAM]
ABSOLUTE BASOPHIL [1]: 0 CELLS/uL
ABSOLUTE EOSINOPHIL [1]: 0 CELLS/uL
ABSOLUTE LYMPHOCYTE [1]: 12191.17 CELLS/uL
ABSOLUTE MONOCYTE [1]: 183.17 CELLS/uL
ABSOLUTE SEGMENTED NEUTROPHIL [1]: 1192.33 CELLS/uL
BASOPHIL [1]: 0%
EOSINOPHIL [1]: 0%
ERYTHROCYTE COUNT [1]: 5.51 x10E6/uL
HEMATOCRIT [1]: 35.45%
HEMOGLOBIN [1]: 13.82 G/DL
LEUKOCYTE COUNT [1]: 13.57 x10E3/uL
LYMPHOCYTE [1]: 89.83%
MEAN CORPUSCULAR HEMOGLOBIN [1]: 25.1 pg
MEAN CORPUSCULAR HEMOGLOBIN CONCENTRATION [1]: 38.98 G/DL
MEAN CORPUSCULAR VOLUME [1]: 64.42 fL
MONOCYTE [1]: 1.33%
NEUTROPHIL [1]: 8.83%
NUCLEATED RED BLOOD CELLS [1]: 0 /100WBC
PLATELET COUNT [1]: 1118.17 x10E3/uL
ALANINE AMINOTRANSFERASE [1]: 55 u/L
ALBUMIN [1]: 4.15 G/DL
ALKALINE PHOSPHATASE [1]: 449.5 u/L
ASPARTATE AMINOTRANSFERASE [1]: 112.83 u/L
BLOOD UREA NITROGEN [1]: 17.33 mg/dL
CARBON DIOXIDE [1]: 29.5 mmol/L
CHLORIDE [1]: 101 MEQ/L
CHOLESTEROL [1]: 70 mg/dL
CREATINE PHOSPHOKINASE [1]: 1325.83 u/L
CREATININE [1]: 0.18 mg/dL
GLUCOSE [1]: 171.5 mg/dL
LACTATE DEHYDROGENASE [1]: 386 u/L
LIPASE [1]: 10 u/L
PHOSPHORUS [1]: 11.57 mg/dL
POTASSIUM [1]: 6.21 MEQ/L
SODIUM [1]: 141.65 MEQ/L
TOTAL BILIRUBIN [1]: 0.15 mg/dL
TOTAL PROTEIN [1]: 5.75 G/DL
URIC ACID [1]: 1.28 mg/dL
ABSOLUTE BASOPHIL [2]: 0 CELLS/uL
ABSOLUTE EOSINOPHIL [2]: 138.17 CELLS/uL
ABSOLUTE LYMPHOCYTE [2]: 13283.17 CELLS/uL
ABSOLUTE MONOCYTE [2]: 303.83 CELLS/uL
ABSOLUTE SEGMENTED NEUTROPHIL [2]: 1308.17 CELLS/uL
BASOPHIL [2]: 0%
EOSINOPHIL [2]: 1%
ERYTHROCYTE COUNT [2]: 5.32 x10E6/uL
HEMATOCRIT [2]: 33.8%
HEMOGLOBIN [2]: 13.63 G/DL
LEUKOCYTE COUNT [2]: 15.03 x10E3/uL
LYMPHOCYTE [2]: 88.33%
MEAN CORPUSCULAR HEMOGLOBIN [2]: 25.68 pg
MEAN CORPUSCULAR HEMOGLOBIN CONCENTRATION [2]: 40.35 G/DL
MEAN CORPUSCULAR VOLUME [2]: 63.67 fL
MONOCYTE [2]: 1.83%
NEUTROPHIL [2]: 8.83%
NUCLEATED RED BLOOD CELLS [2]: 0 /100WBC
PLATELET COUNT [2]: 1097.5 x10E3/uL
ALANINE AMINOTRANSFERASE [2]: 54.5 u/L
ALBUMIN [2]: 4.27 G/DL
ALKALINE PHOSPHATASE [2]: 337 u/L
ASPARTATE AMINOTRANSFERASE [2]: 94.67 u/L
BLOOD UREA NITROGEN [2]: 17 mg/dL
CARBON DIOXIDE [2]: 28.33 mmol/L
CHLORIDE [2]: 101.5 MEQ/L
CHOLESTEROL [2]: 71.33 mg/dL
CREATINE PHOSPHOKINASE [2]: 628.17 u/L
CREATININE [2]: 0.19 mg/dL
GLUCOSE [2]: 177.83 mg/dL
LACTATE DEHYDROGENASE [2]: 500.5 u/L
LIPASE [2]: 9.5 u/L
PHOSPHORUS [2]: 12.3 mg/dL
POTASSIUM [2]: 5.63 MEQ/L
SODIUM [2]: 143.03 MEQ/L
TOTAL BILIRUBIN [2]: 0.2 mg/dL
TOTAL PROTEIN [2]: 6.02 G/DL
URIC ACID [2]: 1.5 mg/dL
ABSOLUTE BASOPHIL [3]: 0 CELLS/uL
ABSOLUTE EOSINOPHIL [3]: 0 CELLS/uL
ABSOLUTE LYMPHOCYTE [3]: 12266.67 CELLS/uL
ABSOLUTE MONOCYTE [3]: 135.33 CELLS/uL
ABSOLUTE SEGMENTED NEUTROPHIL [3]: 664.67 CELLS/uL
BASOPHIL [3]: 0%
EOSINOPHIL [3]: 0%
ERYTHROCYTE COUNT [3]: 5.48 x10E6/uL
HEMATOCRIT [3]: 35.23%
HEMOGLOBIN [3]: 13.73 G/DL
LEUKOCYTE COUNT [3]: 13.07 x10E3/uL
LYMPHOCYTE [3]: 93.33%
MEAN CORPUSCULAR HEMOGLOBIN [3]: 25.1 pg
MEAN CORPUSCULAR HEMOGLOBIN CONCENTRATION [3]: 38.97 G/DL
MEAN CORPUSCULAR VOLUME [3]: 64.3 fL
MONOCYTE [3]: 1.33%
NEUTROPHIL [3]: 5.33%
NUCLEATED RED BLOOD CELLS [3]: 0 /100WBC
PLATELET COUNT [3]: 1157.67 x10E3/uL
ALANINE AMINOTRANSFERASE [3]: 58.33 u/L
ALBUMIN [3]: 4.1 G/DL
ALKALINE PHOSPHATASE [3]: 310 u/L
ASPARTATE AMINOTRANSFERASE [3]: 85.33 u/L
BLOOD UREA NITROGEN [3]: 17.67 mg/dL
CARBON DIOXIDE [3]: 27.67 mmol/L
CHLORIDE [3]: 101.67 MEQ/L
CHOLESTEROL [3]: 69.33 mg/dL
CREATINE PHOSPHOKINASE [3]: 333.33 u/L
CREATININE [3]: 0.16 mg/dL
GLUCOSE [3]: 163 mg/dL
LACTATE DEHYDROGENASE [3]: 104.33 u/L
LIPASE [3]: 10 u/L
PHOSPHORUS [3]: 11.3 mg/dL
POTASSIUM [3]: 6.13 MEQ/L
SODIUM [3]: 142.3 MEQ/L
TOTAL BILIRUBIN [3]: 0.1 mg/dL
TOTAL PROTEIN [3]: 5.6 G/DL
URIC ACID [3]: 1.73 mg/dL
